Measured values: paper PMC9403976, “Elucidating the path to Plasmodium prolyl-tRNA synthetase inhibitors that overcome halofuginone resistance” (Nature Communications, 2022)
Values joined by “and” are separate entries in the source; they are usually repeats but may differ in a detail not shown here. Identical values can stand only once. Like-named read-outs stand apart in the source and are kept apart here.

How the values were obtained:
P. falciparum Dd2-2D4 = assay: P. falciparum asexual blood stage (ABS) growth assay, SYBR Green, 72 h, wild-type parasites; format: cell-based, Plasmodium falciparum; settings: for ABS growth dose-response, normalized signal (Replicates 1-3) / parasite growth, dose-response point: Dd2-2D4; for parasite growth, dose-response point: single replicates
PfcProRS = biological target: T1, PfcProRS (Plasmodium falciparum, UniProt Q8I5R7); format: binding; settings: for dose-response signal (normalized), SI Fig 8: single replicates
T1 construct: made in house; host or cells: E. coli SoluBL-21

[1] = system: HFGR-I P. falciparum (elevated proline homeostasis and PfcProRS^L482H); assay: P. falciparum ABS growth assay, SYBR Green, 72 h, HFGR-I parasites; format: cell-based, Plasmodium falciparum; settings: HFGR-I, single replicates
Outline: (§1)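 Dd2-derived P. falciparum lines (HFGR-I, halofuginone-induced) at 1% parasitemia and 1% hematocrit in RPMI + 0.5% Albumax were exposed to compounds in triplicate dose-response for 72 h. Growth was read as SYBR Green 1 fluorescence, with 10 μM dihydroartemisinin as kill control and compound-free wells as growth control.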

[2] = system: halofuginone-induced P. falciparum (elevated proline homeostasis); assay: P. falciparum ABS growth assay, SYBR Green, 72 h, halofuginone-induced parasites; format: cell-based, Plasmodium falciparum; settings: for parasite growth, dose-response point: Halofuginone-Induced (HFG-Induced), single replicates
Outline: as §1

HsProRS = HsProRS (Homo sapiens, UniProt P07814); assay: TR-FRET ligand displacement assay with tracer MAT379 (CoraFluor-1-Halo and anti-His6 antibody formats); format: binding; set-up: made in house; host or cells: E. coli SoluBL-21; settings: for TR-FRET dose-response, normalized signal (SI Fig 11): individual replicates
Sequence of HsProRS (P07814 996-1512): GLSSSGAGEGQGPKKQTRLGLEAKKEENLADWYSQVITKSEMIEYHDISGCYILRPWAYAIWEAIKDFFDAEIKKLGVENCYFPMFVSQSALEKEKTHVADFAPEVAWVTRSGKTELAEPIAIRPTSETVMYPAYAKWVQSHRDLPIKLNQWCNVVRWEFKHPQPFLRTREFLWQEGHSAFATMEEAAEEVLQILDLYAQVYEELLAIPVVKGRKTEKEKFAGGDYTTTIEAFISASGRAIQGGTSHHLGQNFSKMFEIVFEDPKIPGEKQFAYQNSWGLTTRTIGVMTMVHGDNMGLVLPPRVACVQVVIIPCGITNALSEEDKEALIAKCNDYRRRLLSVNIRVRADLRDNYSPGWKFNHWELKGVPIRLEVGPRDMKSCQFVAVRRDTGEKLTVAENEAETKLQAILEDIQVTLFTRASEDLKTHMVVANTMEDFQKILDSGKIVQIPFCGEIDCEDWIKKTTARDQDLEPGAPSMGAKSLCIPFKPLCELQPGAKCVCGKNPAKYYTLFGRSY

T1 sequence (Q8I5R7 249-746): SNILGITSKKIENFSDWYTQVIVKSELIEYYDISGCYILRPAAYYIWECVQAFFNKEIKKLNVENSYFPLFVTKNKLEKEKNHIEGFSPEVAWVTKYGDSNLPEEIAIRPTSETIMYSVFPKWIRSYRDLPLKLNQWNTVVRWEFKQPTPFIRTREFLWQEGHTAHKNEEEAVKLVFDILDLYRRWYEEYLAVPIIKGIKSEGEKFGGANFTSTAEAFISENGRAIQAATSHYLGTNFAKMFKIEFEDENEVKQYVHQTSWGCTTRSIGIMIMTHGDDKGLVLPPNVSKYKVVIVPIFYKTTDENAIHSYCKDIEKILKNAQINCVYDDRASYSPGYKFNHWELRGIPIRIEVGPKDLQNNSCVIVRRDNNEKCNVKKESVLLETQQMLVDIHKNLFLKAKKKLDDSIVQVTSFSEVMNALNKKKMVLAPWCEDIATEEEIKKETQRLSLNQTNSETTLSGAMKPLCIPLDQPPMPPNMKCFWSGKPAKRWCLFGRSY

CC1(C(=O)Nc2nccnc2C(=O)NC2Cc3ccccc3C2)CCCCC1 [compound 4]
ABS growth dose-response, normalized signal (Replicates 1-3) (P. falciparum Dd2-2D4; Log[inhibitor] (M) -5.000): 0
parasite growth, dose-response point (P. falciparum Dd2-2D4; Log[inhibitor] (M) -5.000): 0
ABS growth dose-response, normalized signal (Replicates 1-3) (P. falciparum Dd2-2D4; Log[inhibitor] (M) -5.301): 0
parasite growth, dose-response point (P. falciparum Dd2-2D4; Log[inhibitor] (M) -5.301): 0
ABS growth dose-response, normalized signal (Replicates 1-3) (P. falciparum Dd2-2D4; Log[inhibitor] (M) -5.602): 0
parasite growth, dose-response point (P. falciparum Dd2-2D4; Log[inhibitor] (M) -5.602): 0
ABS growth dose-response, normalized signal (Replicates 1-3) (P. falciparum Dd2-2D4; Log[inhibitor] (M) -6.505): 8
parasite growth, dose-response point (P. falciparum Dd2-2D4; Log[inhibitor] (M) -6.505): 8
EC50 (P. falciparum Dd2-2D4; Plasmodium falciparum, DD2, SI Fig 16b, values on -log scale, read-out: ABS - Dd2-2D4 (converted)): 180 nM
dose-response signal (normalized), SI Fig 8 (PfcProRS; Log[inhibitor] (M) -5.000): 4.05E-02 and -1.19E-01 and -1.91E-02
dose-response signal (normalized), SI Fig 8 (PfcProRS; Log[inhibitor] (M) -5.301): -7.53E-02 and -2.32E-02 and 3.73E-02
dose-response signal (normalized), SI Fig 8 (PfcProRS; Log[inhibitor] (M) -5.601): -7.78E-02 and -2.66E-03 and -2.25E-02
dose-response signal (normalized), SI Fig 8 (PfcProRS; Log[inhibitor] (M) -5.904): 1.67E-02 and 2.48E-02 and 1.76E-02
dose-response signal (normalized), SI Fig 8 (PfcProRS; Log[inhibitor] (M) -6.208): 8.20E-02 and 4.30E-02 and 6.02E-02
dose-response signal (normalized), SI Fig 8 (PfcProRS; Log[inhibitor] (M) -6.509): 7.49E-03 and -2.38E-02 and -1.11E-02
dose-response signal (normalized), SI Fig 8 (PfcProRS; Log[inhibitor] (M) -6.796): 4.86E-02 and 3.80E-02 and -1.10E-02
dose-response signal (normalized), SI Fig 8 (PfcProRS; Log[inhibitor] (M) -7.108): 4.17E-02 and 7.57E-02 and 3.79E-02
dose-response signal (normalized), SI Fig 8 (PfcProRS; Log[inhibitor] (M) -7.409): 2.11E-01 and 1.42E-01 and 1.90E-01
dose-response signal (normalized), SI Fig 8 (PfcProRS; Log[inhibitor] (M) -7.710): 4.47E-01 and 2.93E-01 and 4.00E-01
dose-response signal (normalized), SI Fig 8 (PfcProRS; Log[inhibitor] (M) -8.000): 7.09E-01 and 7.29E-01 and 6.69E-01
dose-response signal (normalized), SI Fig 8 (PfcProRS; Log[inhibitor] (M) -8.301): 8.70E-01 and 9.23E-01 and 9.80E-01
dose-response signal (normalized), SI Fig 8 (PfcProRS; Log[inhibitor] (M) -8.602): 1.09E+00 and 9.73E-01 and 1.05E+00
dose-response signal (normalized), SI Fig 8 (PfcProRS; Log[inhibitor] (M) -9.000): 9.29E-01 and 9.06E-01 and 9.66E-01
dose-response signal (normalized), SI Fig 8 (PfcProRS; Log[inhibitor] (M) -9.301): 8.49E-01 and 1.04E+00 and 9.72E-01
PfcProRS -- best Kd (PfcProRS; SI Fig 16a, values on -log scale): 8.466
parasite growth, dose-response point ([1]; Log[inhibitor] (M) -5): 6 and 7 (2×)
parasite growth, dose-response point ([1]; Log[inhibitor] (M) -5.408): 7 (2×) and 6
parasite growth, dose-response point ([1]; Log[inhibitor] (M) -5.816): 6 (2×) and 7
parasite growth, dose-response point ([1]; Log[inhibitor] (M) -6.222): 10 (2×) and 9
parasite growth, dose-response point ([1]; Log[inhibitor] (M) -6.638): 75 and 76 and 81
parasite growth, dose-response point ([1]; Log[inhibitor] (M) -7.046): 99 and 105 and 110
parasite growth, dose-response point ([1]; Log[inhibitor] (M) -7.45): 87 and 99 and 100
parasite growth, dose-response point ([1]; Log[inhibitor] (M) -7.854): 99 and 98 and 103
parasite growth, dose-response point ([1]; Log[inhibitor] (M) -8.26): 100 and 101 and 104
parasite growth, dose-response point ([1]; Log[inhibitor] (M) -8.699): 98 and 99 and 104
parasite growth, dose-response point ([1]; Log[inhibitor] (M) -9): 101 and 97 and 100
parasite growth, dose-response point ([1]; Log[inhibitor] (M) -9.488): 89 and 96 and 93
parasite growth, dose-response point ([2]; Log[inhibitor] (M) -5): 1
parasite growth, dose-response point ([2]; Log[inhibitor] (M) -5.408): 1
parasite growth, dose-response point ([2]; Log[inhibitor] (M) -5.816): 0 (2×) and 1
parasite growth, dose-response point ([2]; Log[inhibitor] (M) -6.222): 16 and 18 and 17
parasite growth, dose-response point ([2]; Log[inhibitor] (M) -6.638): 99 (2×) and 106
parasite growth, dose-response point ([2]; Log[inhibitor] (M) -7.046): 103 (2×) and 109
parasite growth, dose-response point ([2]; Log[inhibitor] (M) -7.45): 100 and 97
parasite growth, dose-response point ([2]; Log[inhibitor] (M) -7.854): 100 (2×) and 97
parasite growth, dose-response point ([2]; Log[inhibitor] (M) -8.26): 101 and 95 and 97
parasite growth, dose-response point ([2]; Log[inhibitor] (M) -8.699): 99 and 98 (2×)
parasite growth, dose-response point ([2]; Log[inhibitor] (M) -9): 96 (2×) and 97
parasite growth, dose-response point ([2]; Log[inhibitor] (M) -9.488): 98 and 95 and 102
dose-response value, Replicates 1-3 (SI Fig 2e) ([2]; Log[inhibitor] (M) -5.000): 1
dose-response value, Replicates 1-3 (SI Fig 2e) ([2]; Log[inhibitor] (M) -5.408): 1
Kd (HsProRS; HsProRS (KD [nM]) −, absence of substrates, 250 nM MAT379): 221 nM
Kd (HsProRS; HsProRS - best Kd, SI Fig 16a, values on -log scale): 2.55 nM
normalized TR-FRET ligand displacement signal, dose-response replicates (SI Fig 6) (HsProRS; Log[inhibitor] (M) -5.000): 4.53E-02 and 6.57E-02 and 9.85E-02
TR-FRET dose-response, normalized signal (SI Fig 11) (HsProRS; Log[inhibitor] (M) -5.000): 6.99E-03 and -1.87E-02 and 8.97E-03
normalized TR-FRET ligand displacement signal, dose-response replicates (SI Fig 6) (HsProRS; Log[inhibitor] (M) -5.301): 8.38E-02 and 1.09E-01 and 1.45E-01
TR-FRET dose-response, normalized signal (SI Fig 11) (HsProRS; Log[inhibitor] (M) -5.301): 5.00E-02 and 2.79E-02 and 4.24E-02
normalized TR-FRET ligand displacement signal, dose-response replicates (SI Fig 6) (HsProRS; Log[inhibitor] (M) -5.601): 2.80E-01 and 1.33E-01 and 2.62E-01
TR-FRET dose-response, normalized signal (SI Fig 11) (HsProRS; Log[inhibitor] (M) -5.601): 1.01E-01 and 8.93E-02 and 1.03E-01
normalized TR-FRET ligand displacement signal, dose-response replicates (SI Fig 6) (HsProRS; Log[inhibitor] (M) -5.904): 4.58E-01 and 3.89E-01 and 4.73E-01
TR-FRET dose-response, normalized signal (SI Fig 11) (HsProRS; Log[inhibitor] (M) -5.904): 1.64E-01 and 2.16E-01 and 1.95E-01
normalized TR-FRET ligand displacement signal, dose-response replicates (SI Fig 6) (HsProRS; Log[inhibitor] (M) -6.208): 6.24E-01 and 6.52E-01 and 5.78E-01
TR-FRET dose-response, normalized signal (SI Fig 11) (HsProRS; Log[inhibitor] (M) -6.208): 2.83E-01 and 3.32E-01 and 2.85E-01
normalized TR-FRET ligand displacement signal, dose-response replicates (SI Fig 6) (HsProRS; Log[inhibitor] (M) -6.509): 8.00E-01 and 8.38E-01 and 8.01E-01
TR-FRET dose-response, normalized signal (SI Fig 11) (HsProRS; Log[inhibitor] (M) -6.509): 4.57E-01 and 4.64E-01 and 4.80E-01
normalized TR-FRET ligand displacement signal, dose-response replicates (SI Fig 6) (HsProRS; Log[inhibitor] (M) -6.796): 9.06E-01 and 8.75E-01 and 9.05E-01
TR-FRET dose-response, normalized signal (SI Fig 11) (HsProRS; Log[inhibitor] (M) -6.796): 6.22E-01 and 6.48E-01 and 6.15E-01
normalized TR-FRET ligand displacement signal, dose-response replicates (SI Fig 6) (HsProRS; Log[inhibitor] (M) -7.108): 9.19E-01 and 1.02E+00 and 8.47E-01
TR-FRET dose-response, normalized signal (SI Fig 11) (HsProRS; Log[inhibitor] (M) -7.108): 7.25E-01 and 7.35E-01 and 7.08E-01
normalized TR-FRET ligand displacement signal, dose-response replicates (SI Fig 6) (HsProRS; Log[inhibitor] (M) -7.409): 8.93E-01 and 1.05E+00 and 9.99E-01
TR-FRET dose-response, normalized signal (SI Fig 11) (HsProRS; Log[inhibitor] (M) -7.409): 8.57E-01 and 8.69E-01 and 8.79E-01
normalized TR-FRET ligand displacement signal, dose-response replicates (SI Fig 6) (HsProRS; Log[inhibitor] (M) -7.710): 9.69E-01 (2×) and 9.96E-01
TR-FRET dose-response, normalized signal (SI Fig 11) (HsProRS; Log[inhibitor] (M) -7.710): 9.21E-01 and 9.18E-01 and 9.07E-01
normalized TR-FRET ligand displacement signal, dose-response replicates (SI Fig 6) (HsProRS; Log[inhibitor] (M) -8.000): 1.02E+00 and 9.51E-01 and 1.08E+00
TR-FRET dose-response, normalized signal (SI Fig 11) (HsProRS; Log[inhibitor] (M) -8.000): 9.42E-01 and 9.60E-01 and 9.15E-01
normalized TR-FRET ligand displacement signal, dose-response replicates (SI Fig 6) (HsProRS; Log[inhibitor] (M) -8.301): 8.99E-01 and 1.00E+00 and 9.75E-01
TR-FRET dose-response, normalized signal (SI Fig 11) (HsProRS; Log[inhibitor] (M) -8.301): 9.32E-01 and 9.20E-01 and 9.46E-01
normalized TR-FRET ligand displacement signal, dose-response replicates (SI Fig 6) (HsProRS; Log[inhibitor] (M) -8.602): 9.54E-01 and 1.01E+00 and 9.27E-01
TR-FRET dose-response, normalized signal (SI Fig 11) (HsProRS; Log[inhibitor] (M) -8.602): 9.70E-01 and 9.45E-01 and 9.16E-01
normalized TR-FRET ligand displacement signal, dose-response replicates (SI Fig 6) (HsProRS; Log[inhibitor] (M) -9.000): 9.66E-01 and 9.16E-01 and 8.85E-01
TR-FRET dose-response, normalized signal (SI Fig 11) (HsProRS; Log[inhibitor] (M) -9.000): 9.54E-01 and 9.83E-01 and 9.88E-01
normalized TR-FRET ligand displacement signal, dose-response replicates (SI Fig 6) (HsProRS; Log[inhibitor] (M) -9.301): 1.02E+00 (2×) and 1.01E+00
TR-FRET dose-response, normalized signal (SI Fig 11) (HsProRS; Log[inhibitor] (M) -9.301): 9.40E-01 and 9.47E-01 and 9.44E-01
